Test results: patent US7179832B2, “Glycogen synthase kinase 3β inhibitor, composition and process for the preparation thereof” (Crystalgenomics, Inc., priority 2003, dated 2007)

Target: GSK-3β (Homo sapiens, UniProt P49841)
Test: Assay for GSK-3β inhibiting activity (32P-ATP, phospho-CREB peptide substrate, filter paper, CPM)
Format: biochemical
Details: GSK-3β inhibiting activity; 100 nM GSK-3β protein, 100 μM phospho-CREB peptide, 100 μM ATP, 30° C. for 1 hour; read-out: IC50
Description: Assay for GSK-3β inhibiting activity
First, PCR (polymerase chain reaction) was carried out using human DNA as a template as well as primers which were designed to correspond to the 3′- and 5′ ends of the polynucleotide coding human GSK-3β gene (Genbank Accession No.: L33801). The BamH1/XhoI fragment of the amplified PCR product thus obtained was inserted into the pGex vector between the BamH1 and XhoI sites, and the vector obtained was transformed into E. coli BL21(DE3). The transformed cells thus obtained was incubated in […] (1% Bacto-trypton, 0.5% yeast extract, 1% NaCl) containing ampicillin ([…]) until the optical density at 600 nm reached about 0.5. The cultured mixture was cooled to 18° C. and isopropyl β-D-thiogalacto-pyranoside (IPTG) was added thereto to a final concentration of 0.5 mM. After 16 hours, the resultant was centrifuged at 10,000×g for 10 min, the collected cells were suspended in a buffer solution (30 mM Tris-HCl (pH 7.5), 100 mM NaCl, 5% glycerol, 2 mM DTT) and the cells were disrupted using Sonic Dismembrator (Fisher, U.S.A.) in a ice bath. The resulting solution was centrifuged at 16,000 rpm for 30 minutes. […] The purified GSK-3β protein was diluted in a buffer solution (20 mM HEPES (pH 7.5), 5% glycerol, 2 mM DTT) to a final concentration of 50 mM NaCl and the resulting solution was subjected to mono S column chromatography (eluent: linear gradient from 0M to 1M NaCl buffer) using mono S column (Pharmacia Biotech, U.S.A.) equilibrated in the same buffer solution to obtain GSK-3β protein.
The reaction was stopped by adding 5 μl of 5% phosphoric acid to 25 μl of the resulting solution. The resulting mixture was centrifuged at 15,000 rpm for 10 min, 20 μl of the supernatant was added dropwise to Whatman p81 filter paper, and then, the resulting filter paper was washed with 0.5% phosphate buffer for 10 min. The filter paper was further washed 3 times and the enzymatic activity was determined by examining the extent of phospho-CREB peptide phosphorylation which is represented by the unit of count per minute (CPM), measured with a β-counter (Packard, USA).
The GSK-3β inhibiting activity was then calculated in accordance with the following equation:
[formula] wherein the blank represents a value obtained without the use of the enzyme and the compound of the present invention, and the control, in the absence of the compound of the present invention.

Chain of GSK-3β (P49841 whole entry): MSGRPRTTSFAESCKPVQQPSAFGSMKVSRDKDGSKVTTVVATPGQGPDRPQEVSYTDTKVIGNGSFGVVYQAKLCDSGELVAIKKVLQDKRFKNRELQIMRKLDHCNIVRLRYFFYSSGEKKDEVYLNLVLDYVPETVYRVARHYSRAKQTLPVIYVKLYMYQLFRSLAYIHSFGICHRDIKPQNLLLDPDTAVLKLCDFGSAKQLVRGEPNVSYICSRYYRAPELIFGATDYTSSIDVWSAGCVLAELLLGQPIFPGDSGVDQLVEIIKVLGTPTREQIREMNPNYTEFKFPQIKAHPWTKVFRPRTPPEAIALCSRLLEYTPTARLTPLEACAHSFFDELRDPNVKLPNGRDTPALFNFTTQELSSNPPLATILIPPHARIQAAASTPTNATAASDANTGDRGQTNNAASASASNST

Row | SMILES | IC50 [µM]
1 | O=C(NCCCn1ccnc1)c1ccc(O)c2nc(-c3ccc(F)c(Cl)c3)[nH]c12 [Compound 203] | 0.003
2 | O=C(c1ccc(O)c2[nH]c(-c3ccc(Cl)cc3Cl)nc12)N1CCCCC1 [Compound 48] | > 5
3 | CC(=O)Nc1ccc(CCNC(=O)c2ccc(O)c3[nH]c(-c4ccc(F)cc4Cl)nc23)cc1 [Compound 146] | 0.07
4 | CC(C)c1nccn1CCCNC(=O)c1ccc(O)c2[nH]c(-c3ccc(F)cc3F)nc12 [Compound 191] | 0.09
5 | Cc1cn(CCCNC(=O)c2ccc(O)c3[nH]c(-c4ccc(Cl)cc4Cl)nc23)cn1 [Compound 181] | 0.03
6 | CN1CCN(CC(=O)Nc2ccc(CCNC(=O)c3ccc(O)c4[nH]c(-c5ccc(F)cc5Cl)nc34)cc2)CC1 [Compound 156] | 0.28
7 | CCCCNC(=O)c1ccc(O)c2[nH]c(-c3ccc(Cl)cc3Cl)nc12 [Compound 176] | 0.45
8 | O=C(Nc1ccc(CCO)cc1)c1ccc(O)c2[nH]c(-c3ccc(Cl)cc3Cl)nc12 [Compound 27] | > 1
9 | O=C(NCCc1cccc(Br)c1)c1ccc(O)c2[nH]c(-c3ccc(F)cc3)nc12 [Compound 139] | 0.12
10 | CC(=O)Nc1ccc(CCNC(=O)c2ccc(O)c3[nH]c(-c4ccc(F)cc4)nc23)cc1 [Compound 117] | 0.03
11 | CS(=O)(=O)Nc1ccc(CCNC(=O)c2ccc(O)c3nc(-c4ccc(F)cc4F)[nH]c23)cc1 [Compound 140] | > 1
12 | O=C(NCCc1ccc(N2CCOCC2)cc1)c1ccc(O)c2[nH]c(-c3ccc(F)cc3)nc12 [Compound 132] | 0.19
13 | O=C(NCCc1ccccc1O)c1ccc(O)c2[nH]c(-c3ccc(F)cc3)nc12 [Compound 137] | 0.005
14 | O=C(NCCCN1CCOCC1)c1ccc(O)c2[nH]c(-c3ccccc3)nc12 [Compound 166] | > 1
15 | O=C(NCCCN1CCCC1=O)c1ccc(O)c2[nH]c(-c3ccccc3)nc12 [Compound 164] | 0.84
16 | Cc1nccn1CCCNC(=O)c1ccc(O)c2[nH]c(-c3ccc(F)cc3)nc12 [Compound 188] | 0.002
17 | O=C(NCCc1ccc([N+](=O)[O-])cc1)c1ccc(O)c2[nH]c(-c3ccc(Cl)cc3Cl)nc12 [Compound 100] | 0.2
18 | O=C(NCc1ccc([N+](=O)[O-])cc1)c1ccc(O)c2[nH]c(-c3ccc(Cl)cc3Cl)nc12 [Compound 56] | 0.7
19 | O=C(NCCCn1ccnc1)c1ccc(O)c2[nH]c(-c3ccc(F)cc3F)nc12 [Compound 192] | 0.008
20 | NCCCNC(=O)c1ccc(O)c2[nH]c(-c3ccccc3)nc12 [Compound 163] | > 1
21 | CN1CCN(CCOc2ccc(CCNC(=O)c3ccc(O)c4[nH]c(-c5ccc(Cl)cc5)nc34)cc2)CC1 [Compound 95] | > 1

Row | SMILES | IC50 [µM]
22 | Cc1cn(CCCNC(=O)c2ccc(O)c3[nH]c(-c4ccc(F)cc4F)nc23)cn1 [Compound 193] | 0.02
23 | CCCCNC(=O)c1ccc(O)c2[nH]c(-c3ccc(Cl)cc3)nc12 [Compound 168] | > 1
24 | Nc1ccc(CNC(=O)c2ccc(O)c3[nH]c(-c4ccc(Cl)cc4)nc23)cc1 [Compound 54] | > 1
25 | O=C(Nc1ccc(CCN2C(=O)c3ccccc3C2=O)cc1)c1ccc(O)c2[nH]c(-c3ccccc3)nc12 [Compound 11] | > 5
26 | O=C(NCCCn1ccnc1)c1ccc(O)c2[nH]c(-c3ccc(F)cc3)nc12 [Compound 185] | > 1
27 | NCCc1ccc(NC(=O)c2ccc(O)c3[nH]c(-c4ccc(Cl)cc4Cl)nc23)cc1 [Compound 24] | > 5
28 | CN1CCN(CC(=O)Nc2ccc(CCNC(=O)c3ccc(O)c4[nH]c(-c5ccc(F)cc5)nc34)cc2)CC1 [Compound 127] | 0.18
29 | O=C(NCCN1CCOCC1)c1ccc(O)c2[nH]c(-c3ccc(Cl)cc3Cl)nc12 [Compound 108] | > 1
30 | O=C(NCCc1ccc(O)cc1)c1ccc(O)c2[nH]c(-c3ccc(Cl)cc3)nc12 [Compound 74] | > 1
31 | O=C(NCCc1ccc(O)cc1)c1ccc(O)c2[nH]c(-c3ccc(F)cc3Cl)nc12 [Compound 150] | 0.06
32 | Nc1ccc(NC(=O)c2ccc(O)c3[nH]c(-c4ccccc4)nc23)cc1 [Compound 4] | > 1
33 | Cc1cn(CCCNC(=O)c2ccc(O)c3[nH]c(-c4ccc(Cl)cc4)nc23)cn1 [Compound 173] | 0.1
34 | O=C(Nc1ccc(CCNS(=O)(=O)c2cccs2)cc1)c1ccc(O)c2[nH]c(-c3ccc(Cl)cc3Cl)nc12 [Compound 31] | > 1
35 | O=C(Nc1ccc(CCN2C(=O)c3ccccc3C2=O)cc1)c1ccc(O)c2[nH]c(-c3ccc(Cl)cc3Cl)nc12 [Compound 30] | > 1
36 | O=C(NCCCn1ccnc1)c1ccc(O)c2[nH]c(-c3ccc(Cl)cc3)nc12 [Compound 170] | 0.19
37 | O=C(NCCNc1ccc([N+](=O)[O-])cn1)c1ccc(O)c2[nH]c(-c3ccc(Cl)cc3)nc12 [Compound 81] | > 1
38 | CCS(=O)(=O)NCCc1ccc(NC(=O)c2ccc(O)c3[nH]c(-c4ccc(F)cc4Cl)nc23)cc1 [Compound 42] | > 1
39 | O=C(NCCc1ccc([N+](=O)[O-])cc1)c1ccc(O)c2[nH]c(-c3ccc(Cl)cc3)nc12 [Compound 72] | 0.12
40 | NC(=O)c1ccc(O)c2[nH]c(-c3ccccc3)nc12 [Compound 1, 7-hydroxy-2-phenyl-1H-benzoimidazole-4-carboxylic acid amide] | > 1
41 | O=C(NCCCn1ccnc1)c1ccc(O)c2[nH]c(-c3ccc(Cl)cc3Cl)nc12 [Compound 178] | 0.04
42 | CS(=O)(=O)NCCc1ccc(NC(=O)c2ccc(O)c3[nH]c(-c4ccc(F)c(Cl)c4)nc23)cc1 [Compound 45] | 0.02

Row | SMILES | IC50 [µM]
43 | CC(C)c1nccn1CCCNC(=O)c1ccc(O)c2[nH]c(-c3ccc(F)cc3)nc12 [Compound 186] | 0.05
44 | NCCNC(=O)c1ccc(O)c2[nH]c(-c3ccc(Cl)cc3Cl)nc12 [Compound 103] | > 5
45 | CCN(CC)CC(=O)Nc1ccc(CCNC(=O)c2ccc(O)c3[nH]c(-c4ccc(Cl)cc4)nc23)cc1 [Compound 89] | 0.32
46 | Cc1ccc(S(=O)(=O)Nc2ccc(CCNC(=O)c3ccc(O)c4[nH]c(-c5ccc(Cl)cc5Cl)nc34)cc2)cc1 [Compound 105] | 0.05
47 | O=C(Nc1ccc(CO)cc1)c1ccc(O)c2[nH]c(-c3ccccc3)nc12 [Compound 6] | > 1
48 | O=C(NCCc1ccc(N2C(=O)c3ccccc3C2=O)cc1)c1ccc(O)c2[nH]c(-c3ccccc3)nc12 [Compound 67] | 0.16
49 | O=C(NCCCn1ccnc1-c1ccccc1)c1ccc(O)c2[nH]c(-c3ccc(Cl)cc3Cl)nc12 [Compound 180] | 0.21
50 | CS(=O)(=O)Nc1ccc(NCCNC(=O)c2ccc(O)c3[nH]c(-c4ccc(F)cc4Cl)nc23)nc1 [Compound 152] | 0.24
51 | Cc1cn(CCCNC(=O)c2ccc(O)c3[nH]c(-c4ccc(F)cc4)nc23)cn1 [Compound 187] | 0.01
52 | O=C(NCCc1ccccn1)c1ccc(O)c2[nH]c(-c3ccccc3)nc12 [Compound 70] | > 1
53 | O=C(NCCNc1ccc([N+](=O)[O-])cn1)c1ccc(O)c2[nH]c(-c3ccccc3)nc12 [Compound 69] | > 1
54 | COc1ccc(CCNC(=O)c2ccc(O)c3[nH]c(-c4ccc(Cl)cc4Cl)nc23)cc1O [Compound 102] | 0.23
55 | CCCCC(=O)Nc1ccc(CCNC(=O)c2ccc(O)c3[nH]c(-c4ccc(Cl)cc4Cl)nc23)cc1 [Compound 113] | 0.19
56 | COc1ccccc1CCNC(=O)c1ccc(O)c2[nH]c(-c3ccc(Cl)cc3)nc12 [Compound 97] | 0.17
57 | CCS(=O)(=O)Nc1ccc(CCNC(=O)c2ccc(O)c3[nH]c(-c4ccc(F)cc4)nc23)cc1 [Compound 116] | 0.003
58 | O=C(NCCc1ccc(OCCN2CCOCC2)cc1)c1ccc(O)c2[nH]c(-c3ccc(Cl)cc3)nc12 [Compound 94] | > 5
59 | O=C(NCCCn1cnc(Cl)c1Cl)c1ccc(O)c2[nH]c(-c3ccc(NCCN4CCOCC4)cc3)nc12 [Compound 204, 7-hydroxy-2-[4-(2-morpholin-4-yl-ethylamino)-phenyl]-1H-benzoimidazole-4-carboxylic acid [3-(4,5-dichloro-imidazol-1-yl)-propyl]-amide] | > 5
60 | Cc1ccc(S(=O)(=O)Nc2ccc(CCNC(=O)c3ccc(O)c4nc(-c5ccc(F)cc5)[nH]c34)cc2)cc1 [Compound 115] | 0.026
61 | Nc1ccc(CCNC(=O)c2ccc(O)c3[nH]c(-c4ccc(F)cc4)nc23)cc1 [Compound 131] | 0.17

Same assay, conditions: IC50 (μM)

Row | SMILES | IC50 [µM]
62 | CCS(=O)(=O)Nc1ccc(CCNC(=O)c2ccc(O)c3nc(-c4ccc(F)cc4Cl)[nH]c23)cc1 [Compound 145] | 0.002
